Test results as given in article PMC5969508, “Stapled peptides as a new technology to investigate protein–protein interactions in human platelets” (Chemical Science, 2018).
Read-outs that look alike come from different tables or passages of the source.

Tests used:
human platelets [1] = assay: Platelet activation markers (PAC-1, CD62P, CD63 binding) by flow cytometry; type: cell-based; conditions: for platelet activation markers PAC-1, CD62P, CD63 (in words): washed human platelets, 10 μM, 1 h treatment, flow cytometry (Fig. 5B)
Method: Fig. 5 (A) Functionalised, stapled Bim BH3 peptides induce PS exposure in platelets. […] (B) Stapled Bim BH3 peptides, but not ABT737 nor 21, induce platelet activation. Platelet activation markers (% positive platelets) were investigated following 1 h of peptide treatment. [drawing 10] PAC-1, [drawing 11] CD62P and [drawing 12] CD63 binding. Statistical significance compared to 20: ****P < 0.0001, ***P between 0.0001 and 0.0005, **P between 0.0010 and 0.0050 ns = non-significant.
(§1) Ethical approval for this study was obtained from the Faculty Research Ethics Committee at Anglia Ruskin University, Cambridge, UK.
(§2) 1.1 Preparation of washed platelet suspension
Blood was collected into 11 mM sodium citrate and washed platelets were prepared as follows: Platelet-rich plasma (PRP) was obtained by centrifugation (240 g, 15 min). Prostaglandin E1 (PGE1, 2 µM) was added to prevent premature platelet activation, and the plasma was centrifuged at 640 g for 15 min. Platelets were suspended in calcium free Tyrode‘s buffer (CFT buffer, containing: 140 mM NaCl, 5 mM KCl, 10 mM N-2-hydroxyethylpiperazine-N‘-2-ethanesulfonic acid (HEPES), 5 mM Glucose, 0.42 mM NaH2PO4, 12 mM NaHCO3, titrated to pH 7.4 with NaOH) to a final concentration of 2x108 platelet/mL and rested at 37 °C for 1 h prior to experimentation.
Treated washed platelet suspensions (1x10^7/mL) were analysed by flow cytometry using a C6 Accuri Flow Cytometer (Beckton Dickinson, UK), in the presence or absence of Annexin-V-PE (BD Biosciences, UK), anti-PAC-1 (BD Biosciences), anti-CD62 (BD Pharmingen, UK), or anti-CD-63P (BD Pharmingen).
Peptides were used to a final concentration of 10 µM (1 mM DMSO stock solutions). At least 10,000 events were acquired per experiment. The entire platelet population was primarily gated by FSC. […]
(§3) The washed platelet suspension was rested at 37 °C for 1 h before commencing the experiment. […] For real time measurments, the peptides were added to the 250 μL of washed platelet suspension after events were recorded for 1 minute and monitored for a further 4 min. […]
The suspensions were analysed by […]

Bcl-xL = biological target: T1, Bcl-xL (Homo sapiens, UniProt Q07817); assay: Surface plasmon resonance (SPR) direct binding to Bcl-xL; conditions: 25 °C
T1 construct: made in house; host or cells: Escherichia coli BL21 Gold DE3
T1 sequence (Q07817 whole entry): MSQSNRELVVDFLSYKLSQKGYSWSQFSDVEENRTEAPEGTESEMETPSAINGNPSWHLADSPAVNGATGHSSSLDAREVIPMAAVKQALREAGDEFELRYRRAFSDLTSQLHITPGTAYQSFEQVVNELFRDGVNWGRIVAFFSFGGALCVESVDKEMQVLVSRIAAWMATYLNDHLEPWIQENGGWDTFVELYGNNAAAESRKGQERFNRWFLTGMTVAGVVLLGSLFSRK
Source text: 1.9 Surface Plasmon Resonance (SPR)
The present method utilizes a Surface plasmon resonance (SPR)-based biosensor (BiacoreTM, GE Healthcare,
Uppsala, Sweden) to characterize Bcl-xL peptide interaction partners.
The SPR assay is configured to examine direct binding of peptide s to Bcl-xL derivatized sensor surfaces and
generate relative affinity values (KDapp) to provide relative ranking data for the series of peptides under
BiacoreTM T200 (GE Healthcare, Uppsala, Sweden) was used to conduct all experiments reported herein. Sensor
surface preparation and all interaction analyses experiments were performed at 25 °C utilizing a data collection
rate of 10 Hz. Reagents were purchased from GE Healthcare. Running buffer containing 10 mM Hepes, pH 7.4,
150 mM sodium chloride, 1 mM dithiothreitol, 1% DMSO and 0.05% polysorbate 20 were utilized throughout
surface preparation and all interaction analysis experiments.
Histidine tagged Bcl-xL protein was diluted to 5 μg/mL and captured onto Sensor chip NTA via the following
sequence of injections to achieve a target Bcl-xL surface density of 700 R.U. (response units). The carboxymethyl
dextran surface of Sensor chip NTA was activated by injection of an aqueous solution containing 50 mM N-hydroxy
succinimide (NHS) and 200 mM N-ethyl-N’-(dimethylaminopropyl) carbodiimide (EDC). 500 μM nickel sulfate (NiSO4)
was subsequently injected for one minute and utilized to capture Bcl-xL from a 5 μg/mL solution injected for one
minute. A further one-minute injection of 1M ethanolamine, pH 8.5 was performed to deactivate any unreacted
carboxymethylesters.3 The flow-rate for all injections during surface derivatization was 10 µl/min.

human platelets [2] = assay: Confocal microscopy of platelets incubated with fluorescently labelled peptides; type: cell-based; conditions: live washed platelets, 10 µM FITC-labelled peptide, 15 minutes incubation, confocal imaging (Fig. SI_5)
Method: (§4) Fig. 3 A functionalised staple is required to induce peptide uptake into platelets. (A) Platelets were incubated with TAMRA labelled model peptides (10 μM final concentration) for 1 h (white), 2 h (grey) and 3 h incubation (black) and the percentage positive for TAMRA fluorescence was quantified using flow cytometry. (B) Peptides showing high uptake within the first hour were analysed during first 5 min following treatment. Changes in platelet-associated fluorescence were recorded in real time using flow cytometry. Unlabelled platelets were recorded for 30 s prior to addition of the given peptide. (C) Platelets were incubated with 10 μM of TAMRA-model peptides for 1 h prior to imaging by confocal microscopy. ^‡ […]
Peptide uptake experiments of the most permeable model peptides 5, 13–16 were repeated in the presence of platelet-rich plasma (PRP) to ensure realistic conditions (ESI, Fig. SI_2a ^†).
Figure SI_3. […]
Peptides were used to a final concentration of 10 µM. […] Images of TAMRA-labelled model peptide stained platelets were acquired after 1 h incubation1 using with excitation at 565 nm and emission was detected with a 560 -615 nm BP filter. […]
were acquired after 15 minutes incubation1 using excitation at 488 nm and emission was detected with […]

human platelets [3] = assay: Peptide uptake in washed platelet suspension by flow cytometry; type: cell-based; conditions: for positive platelets (TAMRA fluorescence), peptide uptake: TAMRA-labelled model peptide 10 μM (1 mM DMSO stock), 37 °C in the dark, 3 h incubation, flow cytometry, mean ± SEM, at least three donors
Method: Washed platelet suspensions were incubated with peptides for varying periods of time and cellular uptake was quantified using flow cytometry. […] Only 34.9 ± 7.8% of platelets were fluorescent following 8 (poly-lysine) treatments after 3 hours. Changes in fluorescence were not observed with other peptides (Fig. 3A).
as §4
In order to explore the rate of peptide uptake, changes in platelet fluorescence were monitored during the first 5 minutes (Fig. 3B) and after 15, 30, 45 and 60 minutes following treatment with peptides (Fig. SI_1, ESI ^†). More than 50% of platelets became fluorescent during the first 15 minutes of incubation with peptides 13–16, with a further increase after the first 45 minutes. Some 40–50% of platelets were fluorescent after 15 minutes following treatment with peptides 2, 5 or 8. No further increase was observed thereafter (Fig. SI_1, ESI ^†).
as §1, §2
Blood was collected into 11 mM sodium citrate and washed platelets were prepared as follows: Platelet-rich plasma (PRP) was obtained by centrifugation (240 g, 15 min). Prostaglandin E1 (PGE1, 2 µM) was added to prevent premature platelet activation, and the plasma was centrifuged at 640 g for 15 min. […]
Treated washed platelet suspensions (1x10^7/mL) were analysed by flow cytometry using a C6 Accuri Flow Cytometer (Beckton Dickinson, UK), in the presence or absence of Annexin-V-PE (BD Biosciences, UK), anti-PAC-1 (BD Biosciences), anti-CD62 (BD Pharmingen, UK), or anti-CD-63P (BD Pharmingen). […]
as §3

human platelets [4] = assay: PS exposure (annexin-V binding) by flow cytometry; type: cell-based; conditions: washed human platelets, 10 μM, 37 °C, time course up to 3 h, flow cytometry (Fig. 5A)
Method: Platelet activation markers (% positive platelets) were investigated following 1 h of peptide treatment. […] CD63 binding.
Human blood was collected from healthy volunteers, who had not taken medication for two weeks,
following informed consent in accordance with the Declaration of Helsinki. Blood was collected into 11 mM sodium citrate and washed platelets were prepared as follows: Platelet-rich plasma (PRP) was obtained by centrifugation (240 g, 15 min). Prostaglandin E1 (PGE1, 2 µM) was added to prevent premature platelet activation, and the plasma was centrifuged at 640 g for 15 min. […]
PS exposure was assessed after incubation of 50 µL of washed platelet suspensions at 37 °C in 445 µL of […]
under the protection from direct light and analysed by flow cytometry.
Platelet activation markers (PAC -1, CD62P and CD63 binding) were assessed after incubation of 3 µL of […]
antibody and the peptide (1.1 μL of 1 mM stock solution in DMSO) . The suspensions were analysed by […]

[5] = SPR Biacore T200, His-tagged Bcl-xL on Sensor chip NTA, 7-point 2-fold dilution 33.3 nM to 1.03 nM, steady state fit, Table S1, read-out: Rel. Kdapp
[6] = washed human platelet suspension

For `CN(C)CC[C@H](CSc1ccccc1)Nc1ccc(S(=O)(=O)NC(=O)c2ccc(N3CCN(Cc4ccccc4-c4ccc(Cl)cc4)CC3)cc2)cc1[N+](=O)[O-]` [ABT737], the “PAC1-positive platelets (integrin αIIbβ3 activation)” value (human platelets [1]; washed human platelets in CFT buffer pH 7.4, 10 μM, 37 °C, after 1 hour, flow cytometry, mean ± SEM) was “ineffective” and the “platelet activation markers PAC-1, CD62P, CD63 (in words)” value (human platelets [1]) was “no increase in any activation marker”.

With `CC[C@H](C)[C@H](NC(C)=O)C(=O)N[C@@H](Cc1c[nH]c2ccccc12)C(=O)N[C@H](C(=O)N[C@@H](C)C(=O)N[C@@H](CCC(N)=O)C(=O)N[C@@H](CCC(=O)O)C(=O)N[C@@H](CC(C)C)C(=O)N[C@@H](CCCNC(=N)N)C(=O)N[C@@]1(C)CCCC=CCCC[C@@](C)(C(=O)N[C@@H](Cc2ccccc2)C(=O)N[C@@H](CC(N)=O)C(=O)N[C@@H](C)C(=O)N[C@@H](Cc2ccc(O)cc2)C(=O)N[C@@H](Cc2ccc(O)cc2)C(=O)N[C@@H](C)C(=O)N[C@@H](CCCNC(=N)N)C(=O)N[C@@H](CCCNC(=N)N)C(N)=O)NC(=O)[C@H](CC(=O)O)NC(=O)CNC(=O)[C@H]([C@@H](C)CC)NC1=O)[C@@H](C)CC` [Bim SAHBa, reference compound] the Kd (Bcl-xL; [5]) was > 33 nM, the “relative KDapp” value (Bcl-xL; SPR, His-tagged Bcl-xL captured on Sensor chip NTA, steady state affinity, as quoted in main text) was “reduced binding affinity compared to the wild-type and peptide 19” and the “localisation / platelet permeability of FITC-labelled Bim BH3 peptide” value (human platelets [2]) was “able to enter the platelet cytosol”.

`CC(C)C[C@@H]1NC(=O)[C@H](CC(C)C)NC(=O)[C@H](CCCNC(=N)N)NC(=O)[C@H](Cc2c[nH]c3ccccc23)NC(=O)[C@H](CC(C)C)NC(=O)[C@H](CC(=O)O)NC(=O)[C@@H](NC(=O)[C@H](Cc2ccccc2)NC(=O)[C@@H](NC(=O)[C@H](CCC(=O)O)NC(=O)CCCCCNC(=O)c2ccc3c(c2)C(=O)OC32c3ccc(N(C)C)cc3Oc3cc(N(C)C)ccc32)[C@@H](C)O)CCCn2cc(nn2)-c2cc(C(=O)N[C@@H](CCCNC(=N)N)C(=O)N[C@@H](CCCNC(=N)N)C(N)=O)cc(c2)-c2cn(nn2)CCC[C@@H](C(=O)N[C@@H](CCC(=O)O)C(=O)N[C@@H](CC(N)=O)C(N)=O)NC1=O` [compound 4] was tested, and the “positive platelets (TAMRA fluorescence), peptide uptake” value (human platelets [3]; [6]) was 73.0 ± 13.3%.

In the case of `CC(C)C[C@@H]1NC(=O)[C@H](CC(C)C)NC(=O)[C@H](CCCNC(=N)N)NC(=O)[C@H](Cc2c[nH]c3ccccc23)NC(=O)[C@H](CC(C)C)NC(=O)[C@H](CC(=O)O)NC(=O)[C@@H](NC(=O)[C@H](Cc2ccccc2)NC(=O)[C@@H](NC(=O)[C@H](CCC(=O)O)NC(=O)CCCCCNC(=O)c2ccc3c(c2)C(=O)OC32c3ccc(N(C)C)cc3Oc3cc(N(C)C)ccc32)[C@@H](C)O)CCCn2cc(nn2)-c2cc(C(=O)N[C@@H](CCCNC(=N)N)C(=O)N[C@@H](CCCNC(=N)N)C(=O)N[C@@H](CCCNC(=N)N)C(N)=O)cc(c2)-c2cn(nn2)CCC[C@@H](C(=O)N[C@@H](CCC(=O)O)C(=O)N[C@@H](CC(N)=O)C(N)=O)NC1=O` [compound 5], the “positive platelets (TAMRA fluorescence), peptide uptake” value (human platelets [3]; [6]) is reported as 87.0 ± 7.3%, the “fluorescent platelets, peptide uptake” value (human platelets [3]; washed human platelet suspension, TAMRA-labelled model peptide 10 μM, 37 °C, first 15 minutes of incubation, flow cytometry (Fig. SI_1)) is reported as 40–50% and the “change in platelet-associated fluorescence in real time” value (human platelets [3]; washed human platelets, TAMRA-labelled peptide, continuous flow cytometry during first 5 minutes of treatment (Fig. 3B)) is reported as “rapid increase in platelet fluorescence”.

Work on `CC[C@H](C)[C@H](NC(C)=O)C(=O)N[C@@H](Cc1c[nH]c2ccccc12)C(=O)N[C@H](C(=O)N[C@@H](C)C(=O)N[C@@H](CCC(N)=O)C(=O)N[C@@H](CCC(=O)O)C(=O)N[C@@H](CC(C)C)C(=O)N[C@@H](CCCNC(=N)N)C(=O)N[C@H]1CCCn2cc(nn2)-c2cc(C(=O)N[C@@H](CCCNC(=N)N)C(=O)N[C@@H](CCCNC(=N)N)C(=O)N[C@@H](CCCNC(=N)N)C(N)=O)cc(c2)-c2cn(nn2)CCC[C@@H](C(=O)N[C@@H](Cc2ccccc2)C(=O)N[C@@H](CC(N)=O)C(=O)N[C@@H](C)C(=O)N[C@@H](Cc2ccc(O)cc2)C(=O)N[C@@H](Cc2ccc(O)cc2)C(=O)N[C@@H](C)C(=O)N[C@@H](CCCNC(=N)N)C(=O)N[C@@H](CCCNC(=N)N)C(N)=O)NC(=O)[C@H](CC(=O)O)NC(=O)CNC(=O)[C@H]([C@@H](C)CC)NC1=O)[C@@H](C)CC` [peptide 19] yielded a Kd (Bcl-xL; [5]) of 26.2 nM and a Kd (Bcl-xL; SPR, His-tagged Bcl-xL captured on Sensor chip NTA, steady state affinity, as quoted in main text, read-out: relative KDapp) of 26 nM.

In the case of `CC[C@H](C)[C@H](NC(C)=O)C(=O)N[C@@H](Cc1c[nH]c2ccccc12)C(=O)N[C@H](C(=O)N[C@@H](C)C(=O)N[C@@H](CCC(N)=O)C(=O)N[C@@H](CCC(=O)O)C(=O)N[C@@H](CC(C)C)C(=O)N[C@@H](CC(=O)O)C(=O)N[C@H]1CCCn2cc(nn2)-c2cc(C(=O)N[C@@H](CCCNC(=N)N)C(=O)N[C@@H](CCCNC(=N)N)C(=O)N[C@@H](CCCNC(=N)N)C(N)=O)cc(c2)-c2cn(nn2)CCC[C@@H](C(=O)N[C@@H](Cc2ccccc2)C(=O)N[C@@H](CC(N)=O)C(=O)N[C@@H](C)C(=O)N[C@@H](Cc2ccc(O)cc2)C(=O)N[C@@H](Cc2ccc(O)cc2)C(=O)N[C@@H](C)C(=O)N[C@@H](CCCNC(=N)N)C(=O)N[C@@H](CCCNC(=N)N)C(N)=O)NC(=O)[C@H](CC(=O)O)NC(=O)CNC(=O)[C@H]([C@@H](C)CC)NC1=O)[C@@H](C)CC` [peptide 21], the “Rel. Kdapp” value (Bcl-xL; SPR Biacore T200, His-tagged Bcl-xL on Sensor chip NTA, 7-point 2-fold dilution 33.3 nM to 1.03 nM, steady state fit, Table S1) is reported as “No binding”, the “platelet activation markers PAC-1, CD62P, CD63 (in words)” value (human platelets [1]) is reported as “nonspecific activation was not observed” and the “PS exposure / annexin-V binding (in words)” value (human platelets [4]) is reported as “did not result in PS exposure”.
